Like-named read-outs stand apart in the source and are kept apart here.
Legend:
[1] = Characterisation and stability of Retro-2.1 formulation in PLGA–PEG–PLGA; assay type: physicochemical
Description: The thin-film rehydration technique was also used to formulate Retro-2.1 in PLGA–PEG–PLGA, using acetone as a dissolution solvent and saline as a rehydration vehicle. As previously described, the polymer was prepared as a 20% (w/v) solution in saline. This solution was able to stably dissolve 3.25 mg/mL of Retro-2.1, with an encapsulation yield of 98% and a drug loading of 1.9%. […] Of note, above 42 °C, the polymer aggregated and separated from water, which is in accordance with other reported polymers with similar structures. The formulation was stable for at least 13 days when stored at 4 °C. However, like the formulation in PEG–PLA, the formulation in PLGA–PEG–PLGA lost 20% of its payload upon storage at 25 °C for 24 h (Figure S10). Subsequent formulations were therefore freshly prepared and stored at 4 °C before use.
(§1) Dynamic light scattering experiments were performed using a Vasco Flex particle size analyzer equipped with a 450 nm laser. Data were recorded at 20 °C using a refractive index of 1.331 and a solvent viscosity of 0.982 cP. For each sample, 10 acquisitions were realized using a noise limit of 1% and 200 channels with a time interval of 1 µs. All samples were analyzed at a concentration of 10 mg/mL in 4 mL glass vials (Lab File, Wheaton) unless otherwise noted.
In a round-bottom flask, Retro-2.1 (59.8 mg, 137 µmol) and PLGA–PEG–PLGA (3.00 g, 545 µmol) were dissolved in acetone (15 mL). The solvent was removed under reduced pressure to yield a translucent pale-yellow polymeric film, which was further dried under vacuum for 4 h. The film was rehydrated with saline (15 mL) at room temperature, and 2 M NaOH solution in water was added to reach a pH of 7. The solution was sterile-filtered on a 0.2 µm membrane (Millex®) into 6 mL sterile vials and stored at 4 °C until further use. The Retro-2.1 concentration was determined using HPLC after dilution of the solution in MeCN. Drug loadings and encapsulation efficiencies were calculated, as described before.
(§2) A sample of the formulation was placed in a 500 µL Eppendorf tube and stored at −20 °C, 4 °C or room temperature (20–25 °C). At each timepoint, the sample was centrifuged (15,000× g, 5 min, 4 °C) and the Retro-2.1 concentration in the supernatant was determined using HPLC.

[2] = Characterisation and stability of Retro-2.1 formulation in PEG–PLA micelles; assay type: physicochemical
Description: Retro-2.1 was encapsulated in PEG–PLA micelles using the thin-film hydration method, also known as the solvent casting method. This method allowed us to dissolve 4.55 mg/mL of the drug in 26.4 mg/mL of PEG–PLA solution, with an encapsulation yield of 91% and a drug loading of 15%, as determined with HPLC analysis using a calibration curve (Figure S1). […] As previously described, including for Genexol®-PM, these micelles are likely to be spherical. Although the zeta potential of these micelles was not determined in this study, PEG–PLA micelles are widely described to have a neutral to slightly negatively charged surface. […] However, about 35% of the drug load precipitated upon storage at room temperature for 24 h (Figure S3). Every subsequent formulation was therefore stored at −20 °C and thawed at 4 °C before use.
as §1
In a round-bottom flask, Retro-2.1 (92 mg, 211 µmol) and PEG–PLA (528 mg, 132 µmol) were dissolved in acetone (20 mL). The solvent was removed under reduced pressure to yield a transparent pale-yellow polymeric film, which was rehydrated with saline (15 mL) at 40 °C. Next, 2M NaOH solution in water was added to reach a pH of 7. The volume was adjusted to 20 mL with saline, and the solution was sterile-filtered on a 0.2 µm membrane (Millex®, Duluth, GA, USA) into several 6 mL sterile vials and stored at −20 °C until further use. The Retro-2.1 concentration was determined using HPLC after dilution of the solution in MeOH. Drug loadings and encapsulation efficiencies were calculated using the following formula:(1) encapsulation yield=100*mdrug dissolved/mdrug addeddrug loading=100* mdrug/mdrug+mpolymer
as §2

[3] = test system: Shiga-like toxin-1 (Stx-1), HeLa cells; settings: cited from earlier work
[4] = in vivo; settings: female, BALB/c, mouse, ip, 50 mg/kg
[5] = in vivo; settings: female, BALB/c, mouse, 2 mg/kg; for half-life: Thalf (elimination half-life)
[6] = Aqueous solubility; assay type: physicochemical
[7] = Pharmacokinetic study in mice, Retro-2.1 in PLGA–PEG–PLGA hydrogel, 25 mg/kg SC; assay type: in vivo; settings: for half-life: flip-flop pharmacokinetics, read-out: Thalf (apparent elimination half-life) (converted); for Cmax: mice plasma
[8] = mouse
[9] = human
[10] = test system: Shiga-like toxin-1 (Stx-1), HeLa cells; test: cells; assay type: cell-based, human; settings: for EC50: Homo sapiens, HeLa, read-out: EC50 (Stx-1 intoxication assay)
[11] = mouse, in vivo, ip, 50 mg/kg
[12] = mouse, in vivo, 2 mg/kg
[13] = SC injection of 25 mg/kg of Retro-2.1 in PLGA–PEG–PLGA, mice
[14] = female, BALB/c, mouse, plasma, SC injection of 25 mg/kg of Retro-2.1 in PLGA–PEG–PLGA, mice
[15] = female, BALB/c, mouse, SC injection of 25 mg/kg of Retro-2.1 in PLGA–PEG–PLGA

Which results are given for `Cc1nc(-c2ccc(C3N(C)c4ccc(F)cc4C(=O)N3c3ccccc3)s2)cs1` (centres unmarked) [Retro-2.1, 6-fluoro-1-methyl-2-(5-(2-methylthiazol-4-yl)thiophen-2-yl)-3-phenyl-2,3-dihydroquinazolin-4(1H)-1]?
drug concentration stably dissolved in polymer solution ([1]; 20% (w/v) PLGA–PEG–PLGA in saline): 3250 µg/mL; drug loading ([1]; PLGA–PEG–PLGA): 1.9%; encapsulation yield ([1]; PLGA–PEG–PLGA): 98%; formulation stable for ([1]; PLGA–PEG–PLGA formulation stored at 4 °C): at least 13 days; payload lost upon storage ([1]; PLGA–PEG–PLGA formulation, 25 °C, 24 h): 20%; temperature at which formulation starts solidifying ([1]; PLGA–PEG–PLGA formulation, inverted vial method): 31 °C; micelle mean diameter (DLS) ([1]; Retro-2.1-loaded PLGA–PEG–PLGA micelles): 24.1 nm; formulation stable for ([2]; PEG–PLA formulation stored at 4 °C and −20 °C): at least 48 h; drug load precipitated upon storage ([2]; PEG–PLA formulation, room temperature, 24 h): about 35%; drug loading ([2]; PEG–PLA micelles): 15%; encapsulation yield ([2]; PEG–PLA micelles): 91%; micelle mean diameter (DLS) ([2]; Retro-2.1-loaded PEG–PLA micelles): 22.5 nm; drug concentration dissolved in polymer solution ([2]; in 26.4 mg/mL of PEG–PLA solution, thin-film hydration, HPLC): 4550 µg/mL; times more potent than Retro-2 [3]: about 100 times; EC50 ([3]; read-out: EC50 against the Shiga toxin): 102 nM; AUC [4]: 18500 ng·h/mL; CL/F [4]: 45 mL/min/kg; Cmax [4]: 50.6 µg/mL; MRT [4]: 1 h; Tmax [4]: 0.0833 h; AUC ([5]; ip): 322 ng·h/mL; CL/F ([5]; ip): 103 mL/min/kg; Cmax ([5]; ip): 0.304 µg/mL; MRT ([5]; ip): 4.2 h; Tmax ([5]; ip): 5 min; half-life ([5]; ip): 5 h; AUC ([5]; iv): 213 ng·h/mL; Cmax ([5]; iv): 0.328 µg/mL; MRT ([5]; iv): 2.9 h; Tmax ([5]; iv): 5 min; Vd ([5]; iv): 27.5 L/kg; clearance ([5]; iv): 157 mL/min/kg; half-life ([5]; iv): 6.7 h; solubility [6]: < 1 µg/mL; AUCextra [7, 13]: 17%; VSS [7, 13]: 456 L/kg; AUC [7, 14]: 1420 ng·h/mL; CL/F [7, 14]: 294 mL/min/kg; MRT [7, 14]: 26 h; Tmax [7, 14]: 2 h; half-life [7, 14]: 19 h; Cmax [7, 15]: 0.0752 µg/mL; duration of sustained release ([7]; mice, 25 mg/kg SC in PLGA–PEG–PLGA): at least 48 h; signs of pain or acute toxicity ([7]; mice, 25 mg/kg SC in PLGA–PEG–PLGA, over 48 h): no sign of pain or acute toxicity was observed; Non-NADPH degradation [8]: < 5%; Clint ([8]; microsomes): 460 μL.min^−1.mg of protein^−1; Non-NADPH degradation [9]: < 5%; Clint ([9]; microsomes): 27.8 μL.min^−1.mg of protein^−1; Metabolic stability at t = 45 min (remaining) ([9]; microsomes, 0.75 h): 27.4%; EC50 [10]: 90 nM; AUCextra ([11]; female, BALB/c): 0.1%; Thalf ([11]; female, BALB/c): 3.3 h; VSS ([11]; female, BALB/c): 2.8 L/kg; plasma detectability 24 h after injection [11]: barely detectable; signs of pain or acute toxicity [11]: no apparent sign of pain or acute toxicity was observed; AUCextra ([12]; female, BALB/c, ip): 2.1%; Thalf (elimination half-life) ([12]; female, BALB/c, ip): 6.7 h; VSS ([12]; female, BALB/c, ip): 26.3 L/kg; plasmatic concentration 7 h following injection ([12]; female, BALB/c, ip): 21 nM; AUCextra ([12]; female, BALB/c, iv): 2.3%; Thalf (elimination half-life) ([12]; female, BALB/c, iv): 5 h; plasmatic concentration 7 h following injection ([12]; female, BALB/c, iv): 6 nM; signs of pain or acute toxicity [12]: no sign of pain or acute toxicity was observed

What does the source list for `CN1c2ccc(F)cc2C(=O)N(c2ccccc2)C1c1ccc(-c2csc(CO)n2)s1` (centres unmarked) [compound 3]?
AUC [4]: 6700 ng·h/mL; Cmax [4]: 2.76 µg/mL; MRT [4]: 3.43 h; Tmax [4]: 0.25 h; AUCextra [7, 13]: 12%; AUC [7, 14]: 621 ng·h/mL; MRT [7, 14]: 21 h; Tmax [7, 14]: 2 h; half-life [7, 14]: 15 h; Cmax [7, 15]: 0.0393 µg/mL; fold less potent than Retro-2.1 [10]: 80 fold; EC50 [10]: 7380 nM; AUCextra ([11]; female, BALB/c): 0.4%; Thalf ([11]; female, BALB/c): 3.7 h

Reference: paper PMC9735573 (International Journal of Molecular Sciences, 2022)
